Tests used:
[1] = target: T1, HBV polymerase reverse transcriptase (HBV-RT) (Hepatitis B virus genotype D subtype ayw, UniProt P03156); assay: inhibitory activity against HBV polymerase in vitro (reverse transcriptase activity); assay type: biochemical; conditions: read-out: Inhibitory effect of HBV-RT; for inhibition at 0.1 µg/mL: 0.1 μg/ml; for inhibition at 1 µg/mL: 1 μg/ml
T1 construct: made in house; host or cells: E. coli
Text: Experiment 1: The inhibitory activity against HBV polymerase in vitro.
Recently, the inventors of the present invention have produced a recombinant HBV polymerase that is expressed from E.coli transformant, measured its enzyme activity and filed patent applications thereof [Korean Patent Application Nos. 94-3918, 96-33998 and 96-63255].
The inventions have established a method of measuring the reverse transcriptase activity of HBV polymerase in vitro. The fundamental principle is the same as the ELISA method, and after reacting the substrate with biotin- and DIG-modified nucleotide, a method of recognizing the polymerized substrate as anti-DIG antibody with peroxidase was used. […] and 20 μ of test compound were mixed and reacted at 14~30° C. for 18~24 hours. Then, the inhibitory effect of test compound against reverse trascriptase activity in the HBV polymerase was examined, compared with the results of control tests without the test compound.

[2] = target: T2, HIV reverse transcriptase (HIV-RT) (Human immunodeficiency virus type 1 group M subtype B, UniProt P04585); assay: in vitro inhibition test against HIV reverse transcriptase; assay type: biochemical, HIV (AIDS virus); conditions: read-out: Inhibitory effect of HIV-RT; for inhibition at 0.1 µg/mL: 0.1 μg/ml; for inhibition at 1 µg/mL: 1 μg/ml
T2 construct: purchased Boehringer Mannheim
Protocol: Experiment 3: The in vitro inhibition test against HIV reverse transcriptase
The inhibitory activity in vitro was measured using a non-radioactive reverse transcriptase assay Kit (Boehringer Mannheim).
At first, 20 μl(40 ng) HIV-RT was added to the wells coated with streptavidin and with the addition of 20 μl, reaction mixture containing template/primer hybrid poly(A)/oligo(dT)15 and DIG-(digoxigenin)-dUTP, biotin-dUTP and TTP, 20 μl test compound was added and reacted at 37° C. for 1 hour. The control without test compound was used for the comparison of related activity. Since DNA containing nucleotide labeled with digoxigenin and biotine was prepared by the action of HIV-RT, it was combined with streptavidin coated at the bottom of the wells. After the reaction was completed, remaining impurities were removed by washing each well with 20 μl buffer solution (pH 7.0) for 30 seconds 5 times and with the addition of 200 μl anti-DIG-POD antibody, the mixture was reacted at 37° C. for 1 hour. For the removal of remaining impurities again, the reacting solution was washed with a buffer solution and with the addition of 200μl ABTS™ each, a substrate of POD(peroxidase), the solution was reacted at room temperature for 30 minutes. The absorbance was read by ELISA reader at 405 nm for the assay of reverse transcriptase activity and its inhibition activity.

T1 sequence (P03156 whole entry): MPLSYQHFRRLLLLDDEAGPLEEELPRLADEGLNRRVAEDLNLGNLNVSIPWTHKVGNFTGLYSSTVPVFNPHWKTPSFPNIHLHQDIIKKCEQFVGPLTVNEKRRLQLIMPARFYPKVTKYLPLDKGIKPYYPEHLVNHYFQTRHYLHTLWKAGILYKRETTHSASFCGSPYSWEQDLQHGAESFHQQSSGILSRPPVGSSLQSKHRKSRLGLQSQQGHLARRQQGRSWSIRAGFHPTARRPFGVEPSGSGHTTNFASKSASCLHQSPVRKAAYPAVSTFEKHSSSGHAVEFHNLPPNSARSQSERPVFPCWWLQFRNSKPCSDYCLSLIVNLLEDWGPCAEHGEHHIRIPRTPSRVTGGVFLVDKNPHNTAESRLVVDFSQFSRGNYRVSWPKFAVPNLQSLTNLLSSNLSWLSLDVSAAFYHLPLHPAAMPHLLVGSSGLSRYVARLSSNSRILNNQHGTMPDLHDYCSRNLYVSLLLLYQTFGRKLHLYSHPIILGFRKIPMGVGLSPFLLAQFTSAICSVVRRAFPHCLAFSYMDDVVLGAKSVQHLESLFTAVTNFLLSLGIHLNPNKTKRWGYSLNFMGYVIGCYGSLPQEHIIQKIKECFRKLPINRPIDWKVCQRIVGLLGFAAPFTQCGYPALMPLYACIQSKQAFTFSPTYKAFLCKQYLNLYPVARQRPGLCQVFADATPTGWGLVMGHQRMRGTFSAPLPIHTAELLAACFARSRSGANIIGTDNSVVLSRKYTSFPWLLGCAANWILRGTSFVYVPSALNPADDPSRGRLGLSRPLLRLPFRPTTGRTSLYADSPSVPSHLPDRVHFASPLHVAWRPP

| SMILES | inhibition at 0.1 µg/mL [1] | inhibition at 1 µg/mL [1] | inhibition at 0.1 µg/mL [2] | inhibition at 1 µg/mL [2] |
| --- | --- | --- | --- | --- |
| CC(C)Nc1cccnc1N1CCN(C(=O)c2ccc(C(=O)NCCN3CCOCC3)cc2)CC1 [Compound No. 79, 4-[1-[3-(Isopropylamino)-2-pyridyl]piperazin-4-yl-carbonyl]-1-[N-[2-(morpholin-4-yl)ethyl]carbamoyl]benzene] | 65% | 72% | 59% | 71% |
| CC(C)Nc1cccnc1N1CCN(C(=O)c2ccc(C(=O)N(CCO)c3ccccc3)cc2)CC1 [Compound No. 11, 1-[N-(2-Hydroxyethyl)-N-phenylcarbamoyl]-4-[1-[3-(isopropylamino)-2-pyridyl]piperazin-4-yl-carbonyl]benzene] | 20% | 76% | 43% | 50% |
| COCCNC(=O)c1ccc(C(=O)N2CCN(c3ncccc3NC(C)C)CC2)cc1 [Compound No. 61, 4-[1-[3-(Isopropylamino)-2-pyridyl]piperazin-4-yl-carbonyl]-1-[N-(2-methoxyethyl)carbamoyl]benzene] | 33% | 81% | 32% | 65% |
| CC(C)Nc1cccnc1N1CCN(C(=O)c2ccc(C(=O)N[C@H](CO)C(C)C)cc2)CC1 [Compound No. 38, 1-[N-[(1S)-2-Hydroxy-1-(1-methylethyl)ethyl]carbamoyl]-4-[1-[3-(isopropylamino)-2-pyridyl]piperazin-4-yl-carbonyl]benzene] | 50% | 67% | 20% | 78% |
| CC(C)Nc1cccnc1N1CCN(C(=O)c2ccc(C(=O)N[C@H](CO)c3ccccc3)cc2)CC1 [Compound No. 48, 1-[N-[(1S)-2-Hydroxy-1-phenylethyl]carbamoyl]-4-[1-[3-(isopropylamino)-2-pyridyl]piperazin-4-yl-carbonyl]benzene] | 61% | 80% | 46% | 51% |
| CCNc1cccnc1N1CCN(C(=O)c2ccc(C(=O)N3CCN(CCO)CC3)cc2)CC1 [Compound No. 33, 1-[4-[1-[3-(Ethylamino)-2-pyridyl]piperazin-4-yl-carbonyl]benzoyl]-4-(2-hydroxyethyl)piperazine] | 37% | 69% |  |  |
| CCN(CC)C(=O)c1ccc(C(=O)N2CCN(c3ncccc3NC(C)C)CC2)cc1 [Compound No. 13, 1-[N,N-Diethylcarbamoyl]-4-[1-[3-(isopropylamino)-2-pyridyl]piperazin-4-yl-carbonyl]benzene] | 55% | 70% |  |  |
| CC(C)Nc1cccnc1N1CCN(C(=O)c2ccc(C(=O)N[C@@H](C)CO)cc2)CC1 [Compound No. 35, 1-[N-[(1S)-2-Hydroxy-1-methylethyl]carbamoyl]-4-[1-[3-(isopropylamino)-2-pyridyl]piperazin-4-yl-carbonyl]benzene] | 62% | 82% |  |  |
| CC(C)Nc1cccnc1N1CCN(C(=O)c2ccc(C(=O)NC[C@H](C)O)cc2)CC1 [Compound No. 56, 1-[N-[(2S)-2-Hydroxypropyl]carbamoyl]-4-[1-[3-(isopropylamino)-2-pyridyl]piperazin-4-yl-carbonyl]benzene] | 58% | 76% |  |  |
| CC(C)Nc1cccnc1N1CCN(C(=O)c2ccc(C(=O)NCCN(C)C)cc2)CC1 [Compound No. 83, 1-[N-[2-(Dimethylamino)ethyl]carbamoyl]-4-[1-[3-(isopropylamino)-2-pyridyl]piperazin-4-yl-carbonyl]benzene] | 62% | 65% | 62% | 65% |
| CC(C)Nc1cccnc1N1CCN(C(=O)c2ccc(C(=O)N3CCSCC3)cc2)CC1 [Compound No. 77, 4-[1-[3-(Isopropylamino)-2-pyridyl]piperazin-4-yl-carbonyl]-1-(thiomorpholin-4-yl-carbonyl)benzene] |  |  | 28% | 40% |
| CC(C)Nc1cccnc1N1CCN(C(=O)c2ccc(C(=O)N3CCN(C)CC3)cc2)CC1 [Compound No. 20, 1-[4-[1-[3-(Isopropylamino)-2-pyridyl]piperazin-4-yl-carbonyl]benzoyl]-4-methylpiperazine] | 43% | 58% |  |  |
| CC(C)Nc1cccnc1N1CCN(C(=O)c2ccc(C(=O)NCCCN3CCOCC3)cc2)CC1 [Compound No. 80, 4-[1-[3-(Isopropylamino)-2-pyridyl]piperazin-4-yl-carbonyl]-1-[N-[3-(morpholin-4-yl)propyl]carbamoyl]benzene] | 40% | 66% | 43% | 56% |
| CC(C)Nc1cccnc1N1CCN(C(=O)c2ccc(C(=O)NC(C)(C)CO)cc2)CC1 [Compound No. 34, 1-[N-(1,1-Dimethyl-2-hydroxyethyl)carbamoyl]-4-[1-[3-(isopropylamino)-2-pyridyl]piperazin-4-yl-carbonyl]benzene] | 41% | 53% | 43% | 51% |
| CC(C)Nc1cccnc1N1CCN(C(=O)c2ccc(C(=O)N3CCOCC3)cc2)CC1 [Compound No. 76, 4-[1-[3-(Isopropylamino)-2-pyridyl]piperazin-4-yl-carbonyl]-1-(morpholin-4-yl-carbonyl)benzene] | 49% | 79% | 43% | 52% |
| CC(C)Nc1cccnc1N1CCN(C(=O)c2ccc(C(=O)NCCOCCO)cc2)CC1 [Compound No. 17, 1-[N-[2-(2-Hydroxyethoxy)ethyl]carbamoyl]-4-[1-[3-(isopropylamino)-2-pyridyl]piperazin-4-yl-carbonyl]benzene] |  |  | 35% | 53% |
| CC(C)Nc1cccnc1N1CCN(C(=O)c2ccc(C(=O)NCCN3CCCCC3)cc2)CC1 [Compound No. 81, 4-[1-[3-(Isopropylamino)-2-pyridyl]piperazin-4-yl-carbonyl]-1-[N-[2-(piperidin-1-yl)ethyl]carbamoyl]benzene] |  |  | 32% | 60% |
| CC(C)Nc1cccnc1N1CCN(C(=O)c2ccc(C(=O)N(C(C)C)C(C)C)cc2)CC1 [Compound No. 14, 1-[N,N-Bis(1-methylethyl)carbamoyl]-4-[1-[3-(isopropylamino)-2-pyridyl]piperazin-4-yl-carbonyl]benzene] |  |  | 52% | 59% |
| CCCN(CCO)C(=O)c1ccc(C(=O)N2CCN(c3ncccc3NC(C)C)CC2)cc1 [Compound No. 7, 1-[N-(2-Hydroxyethyl)-N-propylcarbamoyl]-4-[1-[3-(isopropylamino)-2-pyridyl]piperazin-4-yl-carbonyl]benzene] |  |  | 21% | 60% |
| CC(C)Nc1cccnc1N1CCN(C(=O)c2ccc(C(=O)NCC3CCCO3)cc2)CC1 (stereo not shown) [Compound No. 72, 4-[1-[3-(Isopropylamino)-2-pyridyl]piperazin-4-yl-carbonyl]-1-[N-[(tetrahydrofuran-2-yl)methyl]carbamoyl]benzene] | 51% | 63% |  |  |
| CCNc1cccnc1N1CCN(C(=O)c2ccc(C(=O)N(CC)CCO)cc2)CC1 [Compound No. 18, 1-[N-Ethyl-N-(2-hydroxyethyl)carbamoyl]-4-[1-[3-(ethylamino)-2-pyridyl]piperazin-4-yl-carbonyl]benzene] | 28% | 63% |  |  |
| CC(C)Nc1cccnc1N1CCN(C(=O)c2ccc(C(=O)N[C@H](CO)CC3CCCCC3)cc2)CC1 [Compound No. 47, 1-[N-[(1S)-1-(Cyclohexylmethyl)-2-hydroxyethyl]carbamoyl]-4-[1-[3-(isopropylamino)-2-pyridyl]piperazin-4-yl-carbonyl]benzene] |  |  | 43% | 54% |
| CCN1CCN(C(=O)c2ccc(C(=O)N3CCN(c4ncccc4NC(C)C)CC3)cc2)CC1 [Compound No. 21, 4-Ethyl-1-[4-[1-[3-(isopropylamino)-2-pyridyl]piperazin-4-yl-arbonyl]benzoyl]piperazine] |  |  | 20% | 64% |

— patent US5922871A, “Terephthalamide derivatives” (Dongwha Pharmaceutical Ind. Co., Ltd., priority 1997, dated 1999)
